Consider 5 compounds from PMC5761851, “Application of a phenotypic drug discovery strategy to identify biological and chemical starting points for inhibition of TSLP production in lung epithelial cells” (PLoS ONE, 2018).

Holding throughout (test): kinase selectivity panel
Common to all, as to assay type: biochemical

One experiment has as its target T1, ASK1 (Homo sapiens, UniProt Q99683).
T1 construct: purchased Eurofins Pharma Discovery Services (KinaseProfiler; Cerep BioPrint panel)
T1 sequence (Q99683 1-1374): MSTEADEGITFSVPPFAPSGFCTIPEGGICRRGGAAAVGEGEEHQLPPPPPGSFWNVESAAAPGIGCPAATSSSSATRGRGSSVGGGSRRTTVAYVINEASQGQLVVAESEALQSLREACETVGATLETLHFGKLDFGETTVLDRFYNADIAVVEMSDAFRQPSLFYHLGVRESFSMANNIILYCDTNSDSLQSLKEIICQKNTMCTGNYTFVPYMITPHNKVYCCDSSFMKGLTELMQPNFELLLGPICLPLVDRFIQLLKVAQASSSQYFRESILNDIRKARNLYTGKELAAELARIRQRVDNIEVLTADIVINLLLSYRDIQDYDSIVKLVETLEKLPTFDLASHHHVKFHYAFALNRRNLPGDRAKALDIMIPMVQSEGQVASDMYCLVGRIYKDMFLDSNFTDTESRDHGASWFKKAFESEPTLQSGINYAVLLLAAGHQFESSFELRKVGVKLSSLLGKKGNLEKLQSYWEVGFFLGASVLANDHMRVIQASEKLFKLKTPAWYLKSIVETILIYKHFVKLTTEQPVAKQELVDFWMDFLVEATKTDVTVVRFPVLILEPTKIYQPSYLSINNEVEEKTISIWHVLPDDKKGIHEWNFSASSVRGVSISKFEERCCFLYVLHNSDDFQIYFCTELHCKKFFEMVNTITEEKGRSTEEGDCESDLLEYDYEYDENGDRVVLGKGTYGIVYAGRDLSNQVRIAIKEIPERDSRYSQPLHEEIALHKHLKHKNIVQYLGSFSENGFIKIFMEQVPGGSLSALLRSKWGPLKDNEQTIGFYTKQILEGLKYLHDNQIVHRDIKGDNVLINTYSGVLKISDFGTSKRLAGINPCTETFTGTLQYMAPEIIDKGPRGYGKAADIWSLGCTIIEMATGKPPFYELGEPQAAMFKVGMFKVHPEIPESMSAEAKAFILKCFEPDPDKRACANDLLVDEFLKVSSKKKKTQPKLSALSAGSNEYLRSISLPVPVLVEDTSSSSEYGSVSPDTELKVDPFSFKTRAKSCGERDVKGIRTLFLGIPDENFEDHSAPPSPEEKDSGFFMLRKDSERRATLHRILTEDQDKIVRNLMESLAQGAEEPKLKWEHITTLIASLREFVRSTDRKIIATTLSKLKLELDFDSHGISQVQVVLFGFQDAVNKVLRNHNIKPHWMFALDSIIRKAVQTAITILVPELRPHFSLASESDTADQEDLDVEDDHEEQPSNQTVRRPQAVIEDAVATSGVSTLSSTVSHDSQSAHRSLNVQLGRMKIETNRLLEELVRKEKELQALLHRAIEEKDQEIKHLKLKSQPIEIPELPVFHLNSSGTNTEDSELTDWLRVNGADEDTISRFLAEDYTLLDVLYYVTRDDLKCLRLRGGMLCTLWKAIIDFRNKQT
The following applies: read-out: percentage of control activity (POC), ASK1. The method in brief: (§1)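 Single-point screen: 10 μM, duplicate, 125-kinase panel; follow-up IC50 from 9-point titration in duplicate for chosen hits.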

The target in a further experiment is T2, PKA (Homo sapiens, UniProt P17612).
T2 construct: purchased Eurofins Pharma Discovery Services (KinaseProfiler; Cerep BioPrint panel)
The settings on record: read-out: percentage of control activity (POC), PKA. The method, boiled down: as §1

Another experiment concerns the target T3, MKK7β (Homo sapiens, UniProt O14733).
T3 construct: purchased Eurofins Pharma Discovery Services (KinaseProfiler; Cerep BioPrint panel)
T3 sequence (O14733 1-419): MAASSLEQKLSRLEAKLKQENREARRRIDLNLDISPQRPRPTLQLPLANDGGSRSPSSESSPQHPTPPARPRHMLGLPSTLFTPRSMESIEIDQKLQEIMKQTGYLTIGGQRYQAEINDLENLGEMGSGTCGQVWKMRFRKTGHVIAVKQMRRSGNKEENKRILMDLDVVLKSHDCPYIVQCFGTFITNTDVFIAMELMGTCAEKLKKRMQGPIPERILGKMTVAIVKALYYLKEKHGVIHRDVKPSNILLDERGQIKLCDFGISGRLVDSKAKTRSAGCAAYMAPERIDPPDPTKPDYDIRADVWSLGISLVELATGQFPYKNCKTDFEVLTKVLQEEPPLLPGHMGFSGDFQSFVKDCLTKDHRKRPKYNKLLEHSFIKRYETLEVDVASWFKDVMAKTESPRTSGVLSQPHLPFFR
The following applies: read-out: percentage of control activity (POC), MKK7β. The method, boiled down:
as §1

Another experiment has as its target T4, GSK3β (Homo sapiens, UniProt P49841).
T4 construct: purchased Eurofins Pharma Discovery Services (KinaseProfiler; Cerep BioPrint panel)
The following applies: read-out: percentage of control activity (POC), GSK3β. The method in brief:
as §1

For another experiment, the target named is T5, NEK2 (Homo sapiens, UniProt P51955).
T5 construct: purchased Eurofins Pharma Discovery Services (KinaseProfiler; Cerep BioPrint panel)
T5 sequence (P51955 1-445): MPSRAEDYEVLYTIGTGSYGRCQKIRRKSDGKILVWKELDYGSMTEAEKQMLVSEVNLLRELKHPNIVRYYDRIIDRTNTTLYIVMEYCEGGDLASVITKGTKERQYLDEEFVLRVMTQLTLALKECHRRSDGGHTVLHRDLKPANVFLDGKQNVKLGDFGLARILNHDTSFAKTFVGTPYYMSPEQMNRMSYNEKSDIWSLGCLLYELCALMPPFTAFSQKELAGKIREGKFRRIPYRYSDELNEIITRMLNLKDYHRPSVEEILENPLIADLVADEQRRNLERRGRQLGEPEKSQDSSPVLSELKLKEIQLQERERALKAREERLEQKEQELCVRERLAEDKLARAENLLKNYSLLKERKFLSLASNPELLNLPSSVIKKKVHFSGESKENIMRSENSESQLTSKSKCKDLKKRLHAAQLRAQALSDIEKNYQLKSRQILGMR
The following applies: read-out: percentage of control activity (POC), NEK2. The method in brief:
as §1

T4 sequence (P49841 whole entry): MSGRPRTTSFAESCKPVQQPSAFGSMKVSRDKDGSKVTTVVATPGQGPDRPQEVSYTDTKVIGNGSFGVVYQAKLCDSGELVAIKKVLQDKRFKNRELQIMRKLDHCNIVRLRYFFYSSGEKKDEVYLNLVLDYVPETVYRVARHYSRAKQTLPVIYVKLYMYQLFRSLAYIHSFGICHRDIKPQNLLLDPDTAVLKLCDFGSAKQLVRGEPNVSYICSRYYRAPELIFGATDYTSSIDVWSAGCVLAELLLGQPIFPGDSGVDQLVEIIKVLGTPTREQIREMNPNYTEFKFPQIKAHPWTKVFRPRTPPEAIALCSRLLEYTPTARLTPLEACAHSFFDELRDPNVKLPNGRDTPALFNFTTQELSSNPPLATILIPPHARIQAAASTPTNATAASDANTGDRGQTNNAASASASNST

In the case of `CC(C)(C)N1CCC(c2cc(-c3ccc(F)cc3Cl)c3cc[n+]([O-])c(-c4c(Cl)cccc4Cl)c3n2)CC1` [compound 2], the remaining activity at 10 µM worked out at 100% on ASK1; 109% at PKA; 110% on MKK7β; 99% on GSK3β; 100% on NEK2.
In the case of `Cc1ccc(C(=O)NCC2CC2)cc1-c1ccc2c(c1)NC(=O)C21CCCC1` [compound 3], the remaining activity at 10 µM at ASK1 turned out to be 97%; on PKA it was 99%; on MKK7β it was 116%; on GSK3β, 104%; on NEK2, 99%.
With `Cn1cc(-c2cccc(-c3nc(C(=O)NC4C5CC6CC4CC(O)(C6)C5)c(N)nc3N)c2)cn1` (stereo not shown) [compound 4], the remaining activity at 10 µM stood at 92% at ASK1; 100% on PKA; 101% at MKK7β; 105% at GSK3β; 85% on NEK2.
With `CS(=O)(=O)N1CCN(c2ccc(Nc3ncc(C(N)=O)c(NC4CC4)n3)cc2)CC1` [compound 5], the remaining activity at 10 µM at ASK1 worked out at 0%; at PKA, 26%; on MKK7β, 7%; at GSK3β, 25%; on NEK2 it was 4%.
For `COc1c(NC(=O)c2ccc(C)c(-c3nnc4c(NCC(C)(C)C)nccn34)c2)cc(C(C)(C)C)cc1NS(C)(=O)=O` [compound 7, reference compound], the remaining activity at 10 µM on ASK1 is 87%; on PKA it was 109%; on MKK7β, 112%; on GSK3β it was 117%; at NEK2, 95%.
